Among the data in BindingDB's records for doi:10.1016/j.bmcl.2023.129277 (n/a, 2023) are IC50 and Ki values, retold here.

A short description of assay [1]: Inhibition of PKD1 (unknown origin).
Assay [2] can be described thus: Inhibition of PKD1 (unknown origin) assessed as inhibition constant.

Usually IC50 stands for the concentration that gives 50% inhibition. High values mean weaker potency in that assay, low ones greater potency in that assay. Broadly, the Ki is the dissociation constant of the complex between target and ligand, obtained from inhibition or displacement.

The structures appear in SMILES notation.

With `CN1C(=O)[C@](O)(C#Cc2cccc(-n3nc(C(N)=O)c4cccnc43)c2)[C@H]2C[C@H]21` [1-(3-(((1R,4R,5S)-4-hydroxy-2-methyl-3-oxo-2-azabicyclo[3.1.0]hexan-4-yl)ethynyl)phenyl)-1H-pyrazolo[3,4-b]pyridine-3-carboxamide], the IC50 in assay [1] came to 0.21 µM. Also, the Ki in assay [2] is 0.064 µM.
